Measurements reported in patent US4738929A, “Purified culture of streptomyces galanosa” (Warner-Lambert Company, priority 1986, dated 1988).
In brackets after ≈: the same amount, converted by molar mass.

Legend:
Branhamella catarrhalis = assay: Microtiter dilution MIC, Branhamella catarrhalis; type: cell-based; conditions: Moraxella catarrhalis; Mueller-Hinton broth, 37° C., 16-24 hours; read-out: Minimal Inhibitory Concentration
Procedure: (§1) The compounds of the present invention and their pharmaceutically acceptable salts are useful as antimicrobial agents. The antimicrobial activity of the representative examples of compounds in accordance with the present invention against five species of gram-negative bacteria, seven species of gram-positive bacteria, four species of yeast, and two species of fungi were determined using the microtiter dilution technique. This method is described by T. B. Conrath, "Handbook of Microtiter Procedures," Dynatech Corp., Cambridge, Mass., USA (1972); and T. L. Gavan et al, "Microdilution Test Procedures," in Manual of Clinical Microbiology, E. H. Lennette, Ed., American Soc. for Microbiol., Washington, D.C., U.S.A. (1980).
(§2) Each agent is suspended in a nonaqueous solvent for several minutes to sterilize the compound or, if the compound is completely soluble in water, the aqueous solution is sterilized by passage through a 0.2-0.45 micrometer membrane filter.
(§3) Each well of a sterile 96-well microdilution tray is filled under aseptic conditions with 0.1 ml of Mueller-Hinton broth (for antibacterial tests), or yeast extract-peptone-dextrose or buffered supplemented yeast nitrogen base (for tests with yeasts or fungi).
(§4) […] of the test compound solution is added to each of the eight wells in the first row of the tray. A microdilutor apparatus is used to simultaneously mix the contents of these wells and to transfer aliquots to each succeeding row of cells to obtain a range of serially diluted solutions. The last row of wells is untreated and serves as a control.
(§5) Each well containing broth and test compound is inoculated with about ten microliters of inoculum of the test microorganism. One well in the last row of wells (which is free of test compound) is not inoculated and is used as a sterility control The trays are sealed and incubated at 37° C. for 16-24 hours (for bacteria) or at 28° C. for 36-48 hours (yeasts or fungi). During incubation, the inoculated medium is shaken at 100-140 rpm to increase contact between the microorganism cells and test compounds.
(§6) After the incubation period, each plate is evaluated by determining the lowest concentration of test compound required to inhibit the growth of the microorganism and recorded as a minimal inhibitory concentration (MIC).

P388 leukemia cell line = assay: In vivo antineoplastic activity against transplanted P388 leukemia in mice; conditions: Days 1-9
Procedure: The in vivo antineoplastic activity of representative compounds of the present invention against the transplanted P388 leukemia cell line in mice was determined in accordance with the protocol given in Geran et al, cited above. The mice were infected intraperitoneally on Day 0 and then administered the indicated doses of the test compounds on Days 1-9.

Bacillus cereus = assay: Microtiter dilution MIC, Bacillus cereus; type: cell-based; conditions: Mueller-Hinton broth, 37° C., 16-24 hours, read-out: Minimal Inhibitory Concentration
Procedure: as §1, §2, §3, §4, §5, §6

Mucor paraciticus = assay: Microtiter dilution MIC, Mucor paraciticus; type: cell-based; conditions: yeasts or fungi, 28° C., 36-48 hours, read-out: Minimal Inhibitory Concentration
Procedure: as §1, §2, §3, §4, §5, §6

Staphylococcus aureus = assay: Microtiter dilution MIC, Staphylococcus aureus; type: cell-based; conditions: Mueller-Hinton broth, 37° C., 16-24 hours, read-out: Minimal Inhibitory Concentration
Procedure: as §1, §2, §3, §4, §5, §6

Streptococcus pneumoniae = assay: Microtiter dilution MIC, Streptococcus pneumoniae; type: cell-based; conditions: Mueller-Hinton broth, 37° C., 16-24 hours, read-out: Minimal Inhibitory Concentration
Procedure: as §1, §2, §3, §4, §5, §6

Salmonella typhimurium = assay: Microtiter dilution MIC, Salmonella typhimurium; type: cell-based; conditions: Salmonella enterica, Mueller-Hinton broth, 37° C., 16-24 hours, read-out: Minimal Inhibitory Concentration
Procedure: as §1, §2, §3, §4, §5, §6

[1] = tested on: Escherichia coli (PD-04863); assay: Microtiter dilution MIC, Escherichia coli (PD-04863); type: cell-based; conditions: Mueller-Hinton broth, 37° C., 16-24 hours, read-out: Minimal Inhibitory Concentration
Procedure: as §1, §2, §3, §4, §5, §6

Streptococcus faecalis = assay: Microtiter dilution MIC, Streptococcus faecalis; type: cell-based; conditions: Enterococcus faecalis; Mueller-Hinton broth, 37° C., 16-24 hours; read-out: Minimal Inhibitory Concentration
Procedure: as §1, §2, §3, §4, §5, §6

Saccharomyces cerevisiae = assay: Microtiter dilution MIC, Saccharomyces cerevisiae; type: cell-based; conditions: yeasts or fungi, 28° C., 36-48 hours, read-out: Minimal Inhibitory Concentration
Procedure: as §1, §2, §3, §4, §5, §6

Micrococcus luteus = assay: Microtiter dilution MIC, Micrococcus luteus; type: cell-based; conditions: Mueller-Hinton broth, 37° C., 16-24 hours, read-out: Minimal Inhibitory Concentration
Procedure: as §1, §2, §3, §4, §5, §6

Bacillus megaterium = assay: Microtiter dilution MIC, Bacillus megaterium; type: cell-based; conditions: Priestia megaterium; Mueller-Hinton broth, 37° C., 16-24 hours; read-out: Minimal Inhibitory Concentration
Procedure: as §1, §2, §3, §4, §5, §6

Streptococcus pyogenes = assay: Microtiter dilution MIC, Streptococcus pyogenes; type: cell-based; conditions: Mueller-Hinton broth, 37° C., 16-24 hours, read-out: Minimal Inhibitory Concentration
Procedure: as §1, §2, §3, §4, §5, §6

Rhizopus japonicus = assay: Microtiter dilution MIC, Rhizopus japonicus; type: cell-based; conditions: yeasts or fungi, 28° C., 36-48 hours, read-out: Minimal Inhibitory Concentration
Procedure: as §1, §2, §3, §4, §5, §6

Alcaligenes viscolactis = assay: Microtiter dilution MIC, Alcaligenes viscolactis; type: cell-based; conditions: Mueller-Hinton broth, 37° C., 16-24 hours, read-out: Minimal Inhibitory Concentration
Procedure: as §1, §2, §3, §4, §5, §6

Rhodotorula aurantiaca = assay: Microtiter dilution MIC, Rhodotorula aurantiaca; type: cell-based; conditions: Buckleyzyma aurantiaca; yeasts or fungi, 28° C., 36-48 hours; read-out: Minimal Inhibitory Concentration
Procedure: as §1, §2, §3, §4, §5, §6

[2] = tested on: Schizosaccharomyces pombe; assay: Microtiter dilution MIC, Schizosaccharomyces pombe; type: cell-based; conditions: yeasts or fungi, 28° C., 36-48 hours, read-out: Minimal Inhibitory Concentration
Procedure: as §1, §2, §3, §4, §5, §6

Pseudomonas aeruginosa = assay: Microtiter dilution MIC, Pseudomonas aeruginosa; type: cell-based; conditions: Mueller-Hinton broth, 37° C., 16-24 hours, read-out: Minimal Inhibitory Concentration
Procedure: as §1, §2, §3, §4, §5, §6

Torulopsis albida = assay: Microtiter dilution MIC, Torulopsis albida; type: cell-based; conditions: Naganishia albida; yeasts or fungi, 28° C., 36-48 hours; read-out: Minimal Inhibitory Concentration
Procedure: as §1, §2, §3, §4, §5, §6

[3] = tested on: L1210 murine leukemia cell line; assay: Cytotoxic activity against L1210 murine leukemia in vitro; type: cell-based; conditions: Mus musculus, 50% inhibition of growth, duplicate tests
Procedure: The antineoplastic activities of representative compounds of the present invention against the L1210 murine leukemia cell line in vitro were determined using the methods detailed by R. I. Geran et al, "Protocols for Screening Chemical Agents and Natural Products Against Animal Tumors and Other Biological Systems," 3rd Edition, Cancer Chemotherapy Reports, Part 3, Vol. 3, pages 1-87 (1972) which is incorporated herein by reference.
The IC50 values are the concentration of compound required to produce 50% inhibition of growth of the cell line.

Cc1c(O)c(C=O)c2nc3c(O)ccc(C(=O)NCCCN(C)C)c3nc2c1O [Example 18, N-[3-(dimethylamino)propyl]-6-formyl-4,7,9-trihydroxy-8-methyl-1-phenazinecarboxamide]
MIC (Branhamella catarrhalis): 12.3 µg/mL (≈ 30.9 µM) | % T/C (P388 leukemia cell line; 25 mg/kg/injection): 106% | % T/C (P388 leukemia cell line; 50 mg/kg/injection): 123% | % T/C (P388 leukemia cell line; 100 mg/kg/injection): 132% | MIC (Bacillus cereus): 12.3 µg/mL (≈ 30.9 µM) | MIC (Mucor paraciticus): 37 µg/mL (≈ 92.9 µM) | MIC (Staphylococcus aureus): 37 µg/mL (≈ 92.9 µM) | MIC (Streptococcus pneumoniae): 37 µg/mL (≈ 92.9 µM) | MIC (Salmonella typhimurium): 111 µg/mL (≈ 279 µM) | MIC [1]: 37 µg/mL (≈ 92.9 µM) | MIC (Streptococcus faecalis): 37 µg/mL (≈ 92.9 µM) | MIC (Saccharomyces cerevisiae): 111 µg/mL (≈ 279 µM) | MIC (Micrococcus luteus): 12.3 µg/mL (≈ 30.9 µM) | MIC (Bacillus megaterium): 37 µg/mL (≈ 92.9 µM) | MIC (Streptococcus pyogenes): 37 µg/mL (≈ 92.9 µM) | MIC (Rhizopus japonicus): 37 µg/mL (≈ 92.9 µM) | MIC (Alcaligenes viscolactis): 12.3 µg/mL (≈ 30.9 µM) | MIC (Rhodotorula aurantiaca): 37 µg/mL (≈ 92.9 µM) | MIC [2]: 37 µg/mL (≈ 92.9 µM) | MIC (Pseudomonas aeruginosa): > 1000 µg/mL | MIC (Torulopsis albida): 37 µg/mL (≈ 92.9 µM) | IC50 [3]: 0.24 µg/mL (≈ 0.602 µM)
